Measured values: patent US10208071B2, “Use of agonists of formyl peptide receptor 2 for treating ocular inflammatory diseases” (Allergan, Inc., priority 2013, dated 2019)

Experiments:
[1] = tested on: corneal epithelial wound; assay: Alkali burn corneal wound in rabbits; assay type: in vivo; conditions: FIG. 3; rabbit model, b270 says mouse models; topical three times a day
From the text: Alkali burn in rabbits: Corneal epithelium plays an important role in the maintenance of corneal function and integrity. Prolonged corneal epithelial defects causes corneal opacity, neovascularization, bacterial infection and visual loss. Corneal epithelial healing is a complex process involving inflammatory response to injury, cell proliferation and migration. Animal models of corneal injury are every useful to test new anti-inflammatory and pro-wound healing therapies. New Zealand White rabbits weighing between 2.1 and 2.5 kg were anesthetized systemically with Ketamine/Xylazine (35/5 mg/kg) subcutaneously and topically with proparacaine (0.5%). The corneal epithelial wound in one eye was induced with a NaOH saturated filter paper containing 1.0 N NaOH for 30 seconds. The eyes were rinsed with sterile PBS. The corneal wound was confirmed by fluorescein staining with 10% sodium fluorescein (Science Lab Com) and slit lamp photography. Test compounds were formulated in the vehicle described above. For initial studies compounds were topically dosed three times a day. Quantification of corneal wound areas was done using Image J software where fluorescing stain green part was traced and converted to total pixel.

[2] = biological target: T1, FPR2 (Homo sapiens (Human), UniProt P25090); assay: FLIPR Ca+2 response, HEK-Gα16 cells stably expressing the human FPR2 receptor (Table 4); assay type: cell-based; conditions: for FPR2 (efficacy): efficacy in parentheses
T1 sequence (P25090 whole entry): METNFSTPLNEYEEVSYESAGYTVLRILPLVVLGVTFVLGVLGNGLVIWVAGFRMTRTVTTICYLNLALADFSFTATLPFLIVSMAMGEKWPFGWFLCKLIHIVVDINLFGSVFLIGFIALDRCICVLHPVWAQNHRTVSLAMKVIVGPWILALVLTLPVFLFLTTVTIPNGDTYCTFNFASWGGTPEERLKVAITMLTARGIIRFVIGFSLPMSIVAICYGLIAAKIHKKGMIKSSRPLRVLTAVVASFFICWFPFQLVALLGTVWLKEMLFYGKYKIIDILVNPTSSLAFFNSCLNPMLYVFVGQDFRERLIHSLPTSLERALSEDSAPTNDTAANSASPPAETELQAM
How it was run: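 HEK-Gα16 cells stably expressing human FPR2, loaded with 2 μM Fluo-4 in HBSS/20 mM HEPES for 40 min at 37° C., then washed. Ligands added in HBSS/Hepes and Ca+2 responses recorded on FLIPR in relative fluorescence units.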

[3] = biological target: T1, FPR2; assay: FPR2 Ga16-CHO EC50 (efficacy), Tables 1-3; assay type: cell-based; conditions: for FPR2 Ga16-CHO (efficacy): efficacy in parentheses

SMILES	FPR2 (efficacy) [2]	EC50 ([2]; unit inferred)	FPR2 Ga16-CHO (efficacy) [3]	EC50 [3]	healing and re-epithelialization of corneal wound [1]
CCCC1(CCC)NC(=O)N(CC(=O)Nc2ccc(Br)cc2)C1=O [N-(4-bromophenyl)-2-(2,5-dioxo-4,4-dipropylimidazolidin-1-yl)acetamide]			nM (0.98)	645 nM	
CCC1(CC)NC(=O)N(CC(=O)Nc2ccc(Br)cc2)C1=O [N-(4-bromophenyl)-2-(4,4-diethyl-2,5-dioxoimidazolidin-1-yl)acetamide]			nM (0.98)	96 nM	
CC1(C)NC(=O)N(CC(=O)Nc2ccc(Br)cc2)C1=O [N-(4-bromophenyl)-2-(4,4-dimethyl-2,5-dioxoimidazolidin-1-yl)acetamide]			nM (0.94)	719 nM	
CC1(C2CC2)NC(=O)N(CC(=O)Nc2ccc(Br)cc2)C1=O (stereo not shown) [N-(4-bromophenyl)-2-(4-cyclopropyl-4-methyl-2,5-dioxoimidazolidin-1-yl)acetamide]			nM (0.84)	166 nM	
CCC1(c2ccccc2)NC(=O)N(CC(=O)Nc2ccc(Br)cc2)C1=O (stereo not shown) [N-(4-bromophenyl)-2-(4-ethyl-2,5-dioxo-4-phenylimidazolidin-1-yl)acetamide]			nM (0.83)	523 nM	
CCC1(CC)NC(=O)N(CC(=O)Nc2ccc(Cl)cc2)C1=O [N-(4-chlorophenyl)-2-(4,4-diethyl-2,5-dioxoimidazolidin-1-yl)acetamide]			nM (0.79)	314 nM	

Continued, in another order:

FPR2 (efficacy) [2]	EC50 ([2]; unit inferred)	FPR2 Ga16-CHO (efficacy) [3]	EC50 [3]	SMILES	healing and re-epithelialization of corneal wound [1]
(1.0)	1.98 nM			CC[C@H](C)[C@H](NC(=O)Nc1ccc(Br)cc1)C(=O)NCC(=O)O [Compound 3, {[(2S,3S)-2-{[(4-bromophenyl)carbamoyl]amino}-3-methylpentanoyl]amino}acetic acid]	accelerated healing and re-epithelialization
nM (0.9)		nM (0.89)		CC[C@H](C)[C@H](NC(=O)Nc1ccc(Br)cc1)C(=O)O [Compound 53, (2S,3S)-2-{[(4-bromophenyl)carbamoyl]amino}-3-methylpentanoic acid]	
		nM (1.0)	485 nM	CCC1(C)NC(=O)N(CC(=O)Nc2ccc(Br)cc2)C1=O (stereo not shown) [N-(4-bromophenyl)-2-(4-ethyl-4-methyl-2,5-dioxoimidazolidin-1-yl)acetamide]	
